Test results taken from publication PMC7181131, “N-Pyrazinoyl Substituted Amino Acids as Potential Antimycobacterial Agents—the Synthesis and Biological Evaluation of Enantiomers” (Molecules, 2020).
≈ marks a conversion by molar mass, not a printed value. Like-named read-outs stand apart in the source and are kept apart here.

Tests used:
[1] = system: Mtb H37Ra ITM-M006710 (ATCC 9431); experiment: Microplate Alamar Blue Assay (MABA) microdilution, Mtb H37Ra; type: cell-based, Mycobacterium tuberculosis; conditions: Mycobacterium tuberculosis
[2] = system: M. smegmatis DSM 43465 (ATCC 607); experiment: Microplate Alamar Blue Assay (MABA) microdilution, M. smegmatis; type: cell-based, Mycobacterium smegmatis; conditions: Mycolicibacterium smegmatis
[3] = system: Mycobacterium aurum DSM 43999 (ATCC 23366); experiment: Microplate Alamar Blue Assay (MABA) microdilution, M. aurum; type: cell-based; conditions: Mycolicibacterium aurum
[4] = system: Staphylococcus epidermidis CCM 4418 (ATCC 12228); experiment: Antibacterial microdilution broth method, SE; type: cell-based; conditions: 24 h, read-out: MIC SE
[5] = system: Candida albicans CCM 8320 (ATCC 24433); experiment: Antifungal microdilution broth method, CA; type: cell-based; conditions: 24 h, read-out: MIC CA
[6] = system: Candida krusei CCM 8271 (ATCC 6258); experiment: Antifungal microdilution broth method, CK; type: cell-based; conditions: Pichia kudriavzevii, 24 h, read-out: MIC CK
[7] = system: Candida parapsilosis CCM 8260 (ATCC 22019); experiment: Antifungal microdilution broth method, CP; type: cell-based; conditions: Lodderomyces parapsilosis, 24 h, read-out: MIC CP
[8] = system: Candida tropicalis CCM 8264 (ATCC 750); experiment: Antifungal microdilution broth method, CT; type: cell-based; conditions: 24 h, read-out: MIC CT
[9] = system: Aspergillus fumigatus ATCC 204305; experiment: Antifungal microdilution broth method, AF; type: cell-based; conditions: ATCC204305, 48 h, read-out: MIC AF
[10] = system: Aspergillus flavus CCM 8363; experiment: Antifungal microdilution broth method, AFla; type: cell-based; conditions: CCM8363, read after 48 h (filamentous fungi), read-out: MIC AFla
Method: 6. In vitro antifungal activity screening
Antifungal activity evaluation was performed using a microdilution broth method according to EUCAST instructions (The European Committee on Antimicrobial Susceptibility Testing) with slight modifications. Eight fungal strains (four yeast and four mould strains) were used for antifungal […]
and Trichophyton interdigitale CCM 8377 (ATCC 9533). Tested strains were purchased from the Czech Collection of Microorganisms (CCM, Brno, Czech Republic) or from the American Type Collection Cultures (ATCC, Manassas, VA, USA). Tested compounds were dissolved in DMSO and diluted in a twofold manner with RPMI 1640 medium, with glutamine and 2% glucose, buffered to pH 7.0 with MOPS (3-morpholinopropane-1-sulfonic acid). The final concentration of DMSO in the testing […]
Static incubation was performed in the dark and in humid atmosphere, at 35±2 °C, for 24 and 48 h (72 and 120 h for Trichophyton interdigitale respectively). Positive controls consisted of test microbe solely, while negative controls consisted of cultivation medium and DMSO. Visual inspection and metabolic activity indicator, Alamar Blue (ThermoFisher Scientific), were used for MIC endpoint evaluation. The internal quality standards, amphotericin B (Sigma-Aldrich) and voriconazole (Toronto research Chemicals, CA) were involved in assays (for MIC of standards see Table S5). All experiments were conducted in duplicates.
For the results to be valid, the difference in MIC for one compound determined from two parallel measurements must not be greater than one step on the dilution scale.

[11] = system: Lichtheimia corymbifera CCM 8077; experiment: Antifungal microdilution broth method, LC; type: cell-based; conditions: CCM8077, 48 h, read-out: MIC LC
[12] = system: Trichophyton interdigitale CCM 8377 (ATCC 9533); experiment: Antifungal microdilution broth method, TI; type: cell-based; conditions: 48 h, read-out: MIC TI
[13] = system: Klebsiella pneumoniae CCM 4415 (ATCC 10031); experiment: Antibacterial microdilution broth method, KP; conditions: read after 24 h of incubation
[14] = pH 6.6, read-out: MIC Mtb H37Ra
[15] = pH 6, calculated from µg/mL, read-out: MIC Mtb H37Ra
[16] = pH 6, read-out: MIC M. smegmatis µg/mL
[17] = pH 6.6, read-out: MIC M. smegmatis
[18] = pH 6, read-out: MIC M. aurum µg/mL

| Structure (SMILES) | MIC ([1]; pH 6) [µg/mL] | MIC ([1]; pH 6, read-out: MIC Mtb H37Ra) [µg/mL] | MIC [1, 14] [µg/mL] | MIC [1, 15] [µM] | MIC [2, 16] [µg/mL] | MIC [2, 17] [µg/mL] | MIC [3, 18] [µg/mL] | MIC ([3]; pH 6.6, read-out: MIC M. aurum) [µg/mL] | MIC [4] [µM] | MIC [5] [µM] | MIC [6] [µM] | MIC [7] [µM] | MIC [8] [µM] | MIC [9] [µM] | MIC [10] [µM] | MIC [11] [µM] | MIC [12] [µM] | MIC KP [13] [µM] |
| --- | --- | --- | --- | --- | --- | --- | --- | --- | --- | --- | --- | --- | --- | --- | --- | --- | --- | --- |
| COC(=O)[C@H](NC(=O)c1cnccn1)[C@H](C)OC(C)(C)C [PC-D-OtBu-Thr-Me, methyl O-(tert-butyl)-N-(pyrazine-2-carbonyl)-D-threoninate] | 62.5 | 62.5 | ≥ 500 | 212 | ≥ 500 | ≥ 500 | ≥ 500 | ≥ 500 | > 500 | > 500 | > 500 | > 500 | > 500 | > 500 | > 500 | > 500 | > 500 | > 500 |
| COC(=O)[C@@H](CO)NC(=O)c1cnccn1 [PC-D-Ser-Me, methyl (pyrazine-2-carbonyl)-D-serinate] | 250 | 250 | ≥ 500 | 1110 | ≥ 500 | ≥ 500 | 250 (≈ 1110 µM) | ≥ 500 | > 500 | > 500 | > 500 | > 500 | > 500 | > 500 | > 500 | > 500 | > 500 | > 500 |
| COC(=O)[C@H](NC(=O)c1cnccn1)[C@H](C)O [PC-D-Thr-Me, methyl (pyrazine-2-carbonyl)-D-threoninate] | ≥ 500 | ≥ 500 | ≥ 500 | ≥ 2090 | ≥ 500 | ≥ 500 | ≥ 500 | ≥ 500 | > 500 | > 500 | > 500 | > 500 | > 500 | > 500 | > 500 | > 500 | > 500 | > 500 |
| CCOC(=O)[C@@H](Cc1c[nH]c2ccccc12)NC(=O)c1cnccn1 [PC-D-Trp-Et, ethyl (pyrazine-2-carbonyl)-D-tryptophanate] | 62.5 | 62.5 | 125 | 185 | 250 (≈ 739 µM) | 250 (≈ 739 µM) | 62.5 (≈ 185 µM) | 250 (≈ 739 µM) | > 500 | > 500 | > 500 | > 500 | > 500 | > 500 | > 500 | > 500 | > 500 | > 500 |
| COC(=O)[C@@H](Cc1ccc(O)cc1)NC(=O)c1cnccn1 [PC-D-Tyr-Me, methyl (pyrazine-2-carbonyl)-D-tyrosinate] | 125 | 125 | ≥ 500 | 415 | ≥ 500 | ≥ 500 | ≥ 250 | ≥ 500 | > 500 | > 500 | > 500 | > 500 | > 500 | > 500 | > 500 | > 500 | > 500 | > 500 |
| COC(=O)[C@H](NC(=O)c1cnccn1)C(C)C [PC-D-Val-Me, methyl (pyrazine-2-carbonyl)-D-valinate] | ≥ 125 | ≥ 125 | ≥ 500 | ≥ 527 | ≥ 125 | ≥ 500 | ≥ 125 | ≥ 500 | > 500 | > 500 | > 500 | > 500 | > 500 | > 500 | > 500 | > 500 | > 500 | > 500 |
| CCOC(=O)CNC(=O)c1cnccn1 [PC-Gly-Et, ethyl (pyrazine-2-carbonyl)glycinate] | ≥ 125 | ≥ 125 | ≥ 500 | ≥ 598 | ≥ 125 | 250 (≈ 1200 µM) | ≥ 125 | ≥ 500 | > 500 | > 500 | > 500 | > 500 | > 500 | > 500 | > 500 | > 500 | > 500 | > 500 |
| CCOC(=O)C[C@H](NC(=O)c1cnccn1)C(=O)OCC [PC-L-Asp-diEt, diethyl (pyrazine-2-carbonyl)-L-aspartate] | ≥ 125 | ≥ 125 | ≥ 500 | ≥ 423 | ≥ 125 | ≥ 500 | ≥ 125 | ≥ 500 | 500 (≈ 148 µg/mL) | > 500 | > 500 | > 500 | > 500 | > 500 | > 500 | > 500 | > 500 | > 500 |
| CCOC(=O)CC[C@H](NC(=O)c1cnccn1)C(=O)OCC [PC-L-Glu-diEt, diethyl (pyrazine-2-carbonyl)-L-glutamate] | 31.2 | 31.2 | ≥ 500 | 101 | ≥ 500 | ≥ 500 | ≥ 500 | ≥ 500 | > 500 | > 500 | > 500 | > 500 | > 500 | > 500 | > 500 | > 500 | > 500 | > 500 |
| O=C(N[C@@H](COCc1ccccc1)C(=O)O)c1cnccn1 [PC-L-OBn-Ser, O-benzyl-N-(pyrazine-2-carbonyl)-L-serine] | ≥ 500 | ≥ 500 | ≥ 500 | ≥ 1660 | 250 (≈ 830 µM) | ≥ 500 | 62.5 (≈ 207 µM) | ≥ 500 | > 500 | > 500 | > 500 | > 500 | > 500 | > 500 | > 500 | > 500 | > 500 | > 500 |
| COC(=O)[C@H](COC(C)(C)C)NC(=O)c1cnccn1 [PC-L-OtBu-Ser-Me, methyl O-(tert-butyl)-N-(pyrazine-2-carbonyl)-L-serinate] | ≥ 500 | ≥ 500 | ≥ 500 | ≥ 1780 | 250 (≈ 889 µM) | ≥ 500 | 62.5 (≈ 222 µM) | ≥ 500 | > 500 | > 500 | > 500 | > 500 | > 500 | > 500 | > 500 | > 500 | > 500 | > 500 |
| COC(=O)[C@H](CO)NC(=O)c1cnccn1 [PC-L-Ser-Me, methyl (pyrazine-2-carbonyl)-L-serinate] | ≥ 500 | ≥ 500 | ≥ 500 | ≥ 2220 | ≥ 500 | ≥ 500 | ≥ 500 | ≥ 500 | > 500 | > 500 | > 500 | > 500 | > 500 | > 500 | > 500 | > 500 | > 500 | > 500 |
